Laboratory results published in US7501281B2, “Compositions, methods and kits related to thrombin, Notch signaling and stamatogenesis and growth of stem cells” (Maine Medical Center Research Institute, priority 2003, dated 2009).

Experiments:
[1] = target: T1, Delta1 (Homo sapiens, UniProt O00548); assay: Thrombin cleavage of in vitro translation product of Delta1; assay type: biochemical
T1 construct: made in house
T1 sequence (O00548 18-723): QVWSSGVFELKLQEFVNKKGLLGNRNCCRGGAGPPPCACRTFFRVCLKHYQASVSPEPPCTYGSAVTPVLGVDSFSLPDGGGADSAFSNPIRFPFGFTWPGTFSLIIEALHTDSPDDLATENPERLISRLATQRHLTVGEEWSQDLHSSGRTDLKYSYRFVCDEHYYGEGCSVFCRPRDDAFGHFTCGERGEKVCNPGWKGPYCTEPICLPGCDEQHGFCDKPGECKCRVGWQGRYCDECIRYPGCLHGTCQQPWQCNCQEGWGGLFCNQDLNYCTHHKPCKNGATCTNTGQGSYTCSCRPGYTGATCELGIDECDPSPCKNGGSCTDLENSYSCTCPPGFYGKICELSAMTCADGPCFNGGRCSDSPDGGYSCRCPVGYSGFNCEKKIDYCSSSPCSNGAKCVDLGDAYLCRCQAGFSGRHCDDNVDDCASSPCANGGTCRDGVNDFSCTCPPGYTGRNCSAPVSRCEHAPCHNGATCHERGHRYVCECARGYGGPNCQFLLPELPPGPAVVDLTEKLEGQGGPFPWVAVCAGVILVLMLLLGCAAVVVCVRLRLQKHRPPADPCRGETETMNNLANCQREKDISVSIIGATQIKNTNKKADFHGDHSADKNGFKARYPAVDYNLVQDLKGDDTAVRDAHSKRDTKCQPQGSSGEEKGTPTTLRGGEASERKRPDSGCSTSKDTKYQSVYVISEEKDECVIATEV

[2] = test system: FGF1 transcript in NIH 3T3 and Swiss 3T3 cells; assay: Nuclear run-on analysis of FGF1 transcription; assay type: cell-based, murine
Experimental: Approximately either 1×10^7 Swiss or NIH 3T3 cells were harvested and washed using ice-cold 50 mM sodium phosphate buffer, pH 7.0 containing 15 mM NaCl. Cell pellets were lysed in 4 ml of ice-cold 10 mM Tris-HCl, pH 7.5, containing 3 mM CaCl2, 3 mM MgCl2, 10 mM NaCl, and 0.5% NP-40. The nuclear pellet was resuspended in glycerol storage buffer (50 mM Tris-HCl, pH 8.3 containing 40% glycerol, 5 mM MgCl2 and 0.1 mM EDTA), the nuclei were snap frozen, and stored in liquid nitrogen. For run-on transcription, 200 μl aliquots of the frozen nuclei were added to 200 μl of reaction buffer (10 mM Tris-HCl, pH 8.3 containing 5 mM MgCl2, 300 mM KCl, 5 mM DTT, 1 mM each of ATP, CTP, and GTP, 40 units of RNase inhibitor and 100 μCi of [^32P]UTP (800 Ci/mmol; Amersham), and incubated at 30° C. for 30 minutes. The mixture was treated with 100 units of RNase-free DNase I for 30 minutes at 30° C. and then incubated with 400 μl of 20 mM Tris-HCl, pH 7.5, containing 2% SDS, 10 mM EDTA, […] proteinase K for 30 minutes at 42° C. Following phenol/CHCl3 extraction, the labelled transcripts were precipitated with isopropanol and dissolved in 50 μl of 10 mM TES, pH 7.5, containing 10 mM EDTA and 0.2% SDS. Linearized plasmid constructs (0.4 μg/dot) containing either the fgfl or gapdh cDNA were alkali denatured and immobilized onto a Hybond-N^+ membrane (Amersham). Hybridization was performed in 1 ml of ULTRA Hyb (Ambion), with 5×10^6 cpm of radiolabeled RNA and yeast RNA (10 μg/ml) for 18 hours with shaking at 50° C. Membranes were washed twice with washing buffer (2×SSC containing 0.1% SDS) at 50° C. and analyzed using a phosphoimager (Molecular Dynamics).

[3] = test system: secondary NCSC populations; assay: Dosage sensitivity of secondary NCSC to instructive differentiation factors BMP2 and sDl1; assay type: cell-based; details: clones expanded 18 days; 5 μM TRAP, sJ1 or thrombin
Experimental: Secondary NCSC population were generated from founder NCSC clones after 13 days of growth in Morrison media supplemented either with 7.5 nM sJ1 (▴-▴), 5 μg/ml α-thrombin (▾-▾), 5 μM TRAP (♦-♦) or no additive (control; ▪-▪) and compared to freshly isolated populations of NCSC (●-●). […] Clonogenic differentiation assays of secondary P75^+/P0^− NCSC populations were assayed in Morrison media as a function of the concentration of the neurogenic differentiation factor, BMP2, and the generation of Neuron-only clones was assessed 14 days after the addition of BMP2. […] Clonogenic differentiation assays of secondary P75^+/P0^− NCSC were preformed in Morrison media supplemented with increasing concentrations of the gliogenic differentiation factor, sDl1 and the generation of Glial-only clones was assessed 14 days after the addition of sDl1. […]
It is well established that quantitative changes in the dosage sensitivity of NCSC populations occur in vitro and in vivo during NCSC self-renewal (Kubu et al., 2002, Dev. Biol. 244:199-214; White et al., 1999, Development 126:4351-4363; White et al., 2001, Neuron 29:57-71). […] The dosage sensitivity of secondary NCSC populations to both BMP2 and sDl1 was evaluated using the clonogenic differentiation assay to quantitate the production of neuron-only clones (BMP2) and glial-only clones (sDl1) after day 18.

| Substance | proteolytic modification of Delta1 translation product [1] | induction of FGF1 transcript ([2]; 10 μg/ml α-thrombin or 5 μM TRAP) | time at which FGF1 mRNA was initially detected ([2]; after addition of thrombin) [min] | time to plateau of FGF1 mRNA ([2]; after addition of thrombin) [h] | shift in sensitivity to instructive differentiation signals [3] |
| --- | --- | --- | --- | --- | --- |
| Thrombin | unable to proteolytically modify | able to induce | 15 | ≤ 2 | not observed |
| sJ1: Soluble Jagged1, amino acid residues from about 1 to 1067 (SEQ ID NO:3) of full-length Jagged1 | – | – | – | – | not observed |
